Assay results: PubChem BioAssay AID652285 (Sanford-Burnham Center for Chemical Genomics, 2013)
Values joined by “and” are separate entries in the source; they are usually repeats but may differ in a detail not shown here. Equal entries are not always repeated. Active and inactive are the calls of the source.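 Rule for the calls: active = IC50 at or below 60 µM; inactive = the rest.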

Target: COP9 signalosome complex subunit 5 (Homo sapiens) (UniProt Q92905)
Test: inhibitors of Csn5 cullin deneddylation – biochemical, fluorescence polarization, Cul-Nedd8-OG substrate, selectivity assay for RPN11 inhibitor project, SAR follow-up (AID 652285)
Conditions: Csn5 deneddylation of SCF-Nedd8-OG

Sequence of COP9 signalosome complex subunit 5 (Homo sapiens) (Q92905 whole entry, looked up, one chain of several): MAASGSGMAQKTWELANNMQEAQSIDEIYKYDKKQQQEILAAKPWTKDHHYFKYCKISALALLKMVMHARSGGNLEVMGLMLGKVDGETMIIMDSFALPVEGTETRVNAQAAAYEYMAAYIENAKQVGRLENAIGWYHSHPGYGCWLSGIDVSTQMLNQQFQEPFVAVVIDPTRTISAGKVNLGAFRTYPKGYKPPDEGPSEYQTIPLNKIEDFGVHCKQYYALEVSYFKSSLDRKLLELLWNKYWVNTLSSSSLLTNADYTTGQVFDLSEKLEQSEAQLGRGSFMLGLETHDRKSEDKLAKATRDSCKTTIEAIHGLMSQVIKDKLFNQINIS

Row | Structure (SMILES) | IC50
1 | CC[C@@H](C)[C@H](NC(=O)c1cnc2c(SSc3cccc4cc(C(=O)N[C@H](C(=O)O)[C@H](C)CC)cnc34)cccc2c1)C(=O)O | 5.76 µM
2 | COC(=O)[C@H](C)N(C)C(=O)c1cnc2c(SSc3cccc4cc(C(=O)N(C)[C@@H](C)C(=O)OC)cnc34)cccc2c1 | 8.63 µM
3 | COC(=O)[C@H](CC(C)C)NC(=O)c1cnc2c(SSc3cccc4cc(C(=O)N[C@@H](CC(C)C)C(=O)OC)cnc34)cccc2c1 | 12.7 µM
4 | O=C(Sc1cccc2cccnc12)c1ccc(C(F)(F)F)cc1 | 6.26 µM
5 | O=C(Sc1cccc2cccnc12)c1ccc([N+](=O)[O-])cc1 | 20.2 µM
6 | COC(=O)[C@H](C)NC(=O)c1cnc2c(SSc3cccc4cc(C(=O)N[C@@H](C)C(=O)OC)cnc34)cccc2c1 | 15.4 µM
7 | CCOc1ccccc1C(=O)Sc1cccc2cccnc12 | 9.27 µM and 34.4 µM
8 | O=C(O)[C@@H]1CCCN1C(=O)c1cnc2c(SSc3cccc4cc(C(=O)N5CCC[C@H]5C(=O)O)cnc34)cccc2c1 | 5.4 µM
9 | COC(=O)[C@@H](NC(=O)c1cnc2c(SSc3cccc4cc(C(=O)N[C@H](C(=O)OC)C(C)C)cnc34)cccc2c1)C(C)C | 7.62 µM
10 | O=C(Sc1cccc2cccnc12)c1ccccc1OC(F)(F)F | 9.48 µM
11 | N#Cc1ccc(C(=O)Sc2cccc3cccnc23)cc1 | > 95 µM (inactive)
12 | COC(=O)[C@H](CO)NC(=O)c1cnc2c(SSc3cccc4cc(C(=O)N[C@@H](CO)C(=O)OC)cnc34)cccc2c1 | 42.7 µM
13 | CCCc1ccc(C(=O)Sc2cccc3cccnc23)cc1 | 10.7 µM
14 | CC(C)C[C@H](NC(=O)c1cnc2c(SSc3cccc4cc(C(=O)N[C@@H](CC(C)C)C(=O)O)cnc34)cccc2c1)C(=O)O | 9.33 µM
15 | COC(=O)[C@H](C)NC(=O)c1ccnc2c(SSc3cccc4c(C(=O)N[C@@H](C)C(=O)OC)ccnc34)cccc12 | 16.8 µM
16 | O=C(Sc1cccc2cccnc12)c1ccc2c(c1)OCO2 | 18.3 µM
17 | C[C@@H](C(=O)O)N(C)C(=O)c1cnc2c(SSc3cccc4cc(C(=O)N(C)[C@@H](C)C(=O)O)cnc34)cccc2c1 | 16.6 µM
18 | CC(C)(C)OC(=O)CCNC(=O)c1cnc2c(SSc3cccc4cc(C(=O)NCCC(=O)OC(C)(C)C)cnc34)cccc2c1 | 34.7 µM
19 | COc1ccc(C(=O)Sc2cccc3cccnc23)cc1OC | 8.81 µM
20 | COc1ccc(C(=O)Sc2cccc3cccnc23)cc1 | 9.61 µM

Further lines, results first:

Row | IC50 | Structure (SMILES)
21 | 8.9 µM | O=C(Sc1cccc2cccnc12)c1cccc2ccccc12
22 | > 95 µM (inactive) | Cc1ccc(C(=O)Sc2cccc3cccnc23)cc1
23 | 14.2 µM and 8.37 µM | COc1ccccc1C(=O)Sc1cccc2cccnc12
24 | 14.1 µM | O=C(Sc1cccc2cccnc12)c1ccccc1Cl
25 | 4.77 µM | O=C(Sc1cccc2cccnc12)c1ccccc1
26 | 4.3 µM | O=C(Sc1cccc2cccnc12)c1ccc(F)cc1
27 | 20.8 µM | Cc1ccccc1C(=O)Sc1cccc2cccnc12
28 | 5.44 µM | O=C(Sc1cccc2cccnc12)c1ccccc1Br
29 | 3.95 µM | O=C(Sc1cccc2cccnc12)c1c(Cl)cccc1Cl
30 | > 95 µM (inactive) | O=C(Sc1cccc2cccnc12)c1ccccc1F
31 | 6.5 µM | COc1ccc(C(=O)Sc2cccc3cccnc23)cc1F
32 | 11.2 µM | O=C(Sc1cccc2cccnc12)c1ccccc1I
33 | > 95 µM (inactive) | O=C(Sc1cccc2cccnc12)c1cccc(C(F)(F)F)c1
34 | 5.36 µM | O=C(Sc1cccc2cccnc12)c1ccc(F)c(F)c1
35 | inactive | O=C(Sc1cccc2cccnc12)c1ccc(F)cc1F
36 | 8.24 µM | O=C(Sc1cccc2cccnc12)c1ccccc1[N+](=O)[O-]
37 | 1.91 µM | O=C(Sc1cccc2cccnc12)c1cccc(Cl)c1
38 | inactive | N#Cc1cccc(C(=O)Sc2cccc3cccnc23)c1
